“And” between values parts separate entries of the source, which are not always exact repeats. Identical values can stand only once.
What was measured:
[1] = Compound plasma concentration in healthy volunteers (PK/PD correlation in plasma); assay type: in vivo, human; details: listed as Compound I
Description: (§1) A first trial is a randomized, double-blind, placebo-controlled, single center study evaluating single ascending doses (SAD) and multiple ascending (MAD) doses of compound 1 in healthy male volunteers (see Van der Aar E M, 2016).

[2] = test system: subjects with IPF; assay: Functional respiratory imaging (FRI) from HRCT in IPF subjects; assay type: in vivo, human
Description: HRCT will be performed (post dose if applicable) at the time points indicated in the study chart (see 1.4 above) and according to sequence of study assessments. HRCT scans will be used to generate FRI measurements allowing for an evaluation of regional IPF disease manifestation and disease progression. In case the subject is on bronchodilators, he/she can use the bronchodilator after the spirometry but prior to HRCT for FRI parameters.
At each computed tomography (CT) assessment an inspiratory and an expiratory scan will be taken. During the baseline visit an additional scan of the upper airway will be taken. The inspiratory and an expiratory scan will expose the subject to a total radiation dose of approximately 4-5 mSv per visit, including the initial CT localizer radiograph (topogram scout). The upper airway scan will expose a subject to approximately 1 mSv. A radiation dose of approximately 2-2.5 mSv is equivalent to approximately 1 year of background radiation (based on the assumption of an average “effective dose” from natural background radiation is of 3.1 mSv per year in the US and 2.4 mSv per year in Europe. (USNRC, 2014; WNA, 2015)
All CT images will be imported into Mimics, a commercial, medical image processing software package (Materialise, Leuven, Belgium, Food and Drug Administration, K073468; CE certificate, BE 05/1191 CE01) for analysis. This software package converts the HRCT images into patient specific, 3-dimensional computer models of the lung lobes, the airway lumen and wall, and the vascular tree. The airway and vascular tree are evaluated at functional residual capacity (FRC) and total lung capacity (TLC) level and can be segmented down to bronchi/vessels with a diameter of around 1-2 mm. Beyond this point the HRCT resolution is insufficient to distinguish alveolar and intraluminal air, or blood vessel tissue and surrounding lung tissues. A typical airway model includes 5-10 generations, depending mainly on the disease state of the individual patient. Afterwards the airway lumen models will be processed further to obtain a model that is suitable for flow calculations.
The following FRI parameters based on low-dose inspiratory-expiratory multi-slice CT images and computational fluid dynamics flow simulations will be evaluated. • lobar volumes at FRC and TLC • airway volumes at FRC and TLC • airway resistance • internal lobar airflow distribution • low attenuation or emphysema score at TLC • blood vessel density or fibrosis score at TLC • airway wall thickness at TLC • air trapping at FRC • mass of deposited particles per defined airway section

[3] = test system: surfactant protein A; assay: Biomarker analysis surfactant protein A in blood of IPF subjects; assay type: in vivo, human; details: following 12 weeks of treatment
Method: (§2) Blood samples of 14 mL will be collected predose by venipuncture (or indwelling catheter for pharmacokinetic sampling days) in the arm at the time points indicated in the study flow chart and according to sequence of study assessments.
The following exploratory biomarkers are evaluated in blood samples: • KL-6/Muc1 • surfactant protein A and D • CCL18 • ATX • MMP1, MMP7 • markers of extracellular matrix (ECM) turnover (neoepitope assay)

[4] = Test compound plasma levels and PK parameters in IPF patients (LC-MS/MS, non-compartmental analysis); assay type: in vivo, human; details: for Compound I concentration: listed as Compound I
Method: The test compound plasma levels were determined by LC-MS/MS and PK parameters by non-compartmental analysis using Phoenix WinNonlin.

[5] = test system: LPA 18:2; assay: Human plasma assay for the reduction of LPA 18:2; assay type: biochemical
[6] = test system: LPA 18:2; assay: LPA 18:2 levels in blood samples of IPF subjects; assay type: in vivo, human; details: for LPA 18:2 % reduction: IPF patients, plasma
Method: as §2
From the blood samples, the LPA 18:2 levels are determined using laboratory techniques.

[7] = test system: LPA C8:2; assay: Plasma LPA reduction in healthy volunteers (PK/PD correlation in plasma); assay type: in vivo, human
Description: as §1

[8] = test system: subjects with IPF; assay: Clinical study in IPF subjects: pulmonary function by spirometry (FVC); assay type: in vivo, human
Method: The study is a randomized, double-blind, parallel group, placebo-controlled, multicenter study to evaluate the test compound in subjects with IPF.
At baseline, after the subject's eligibility for the study has been confirmed, subjects are randomized in a 3:1 ratio test compound (600 mg q.d.) : matching placebo administered for 12 weeks.
Subjects receive 600 mg of test compound (3 capsules of 200 mg) or placebo q.d. for 12 weeks administered in the morning.
Pulmonary function will be assessed through spirometry both performed at the study center (at screening, baseline, and thereafter post dose at the time points indicated in the study schedule and according to sequence of study assessments) and at home (at baseline and thereafter post dose; on a daily basis in the morning). Specific instructions on how to perform the spirometry at home are provided in a separate spirometry user manual.
The following parameters will be measured as part of the spirometry assessment: • FEV1 (L) and percent predicted FEV1 • FVC (L) and percent predicted FVC • FEV1/FVC ratio • Forced expiratory flow (FEF) between 25 and 75% of exhaled volume (FEF25-75)

Compound I concentration ([1]; D 14 - 6 h post-dose): 6506 nM and 3830 ng/mL | Compound I concentration ([1]; D 14 - 24 h post-dose): 421 nM and 249 ng/mL | Compound I concentration ([4]; Week 4 - 0 h post-dose (second line so labelled, r10), plasma): 6557 nM and 3860 ng/mL | Compound I concentration ([4]; Week 4 - 0 h post-dose, plasma): 1020 nM and 604 ng/mL | Compound I concentration ([4]; Week 12 - 0 h post-dose, plasma): 1698 nM and 1000 ng/mL | AUC ([4]; human, plasma, oral, week 4, 600 mg q.d., read-out: mean area under the plasma concentration time curve for the dosing interval of 24 hours (AUC0-τ)): 55600 ng·h/mL | Cmax ([4]; human, plasma, oral, week 4, 600 mg q.d., read-out: median maximum observed plasma concentration (Cmax)): 6060 ng/mL | Tmax ([4]; human, plasma, oral, week 4, 600 mg q.d., read-out: median tmax): 4 h | trough plasma concentration (Cτ) ([4]; week 4, 600 mg q.d.): 604 ng/mL | IC50 in human plasma assay for the reduction of LPA 18:2 [5]: 0.143 µg/mL
SMILES: CCc1nc2c(C)cc(N3CCN(CC(=O)N4CC(O)C4)CC3)cn2c1N(C)c1nc(-c2ccc(F)cc2)c(C#N)s1 [Compound 1]
Specific airway resistance ([2]; Baseline, Compound 1 group): 0.11 kPa/sec | Specific airway volume ([2]; Baseline, Compound 1 group): 3.92 mL/L | Specific airway resistance ([2]; Week 12, 600 mg q.d.): 0.12 kPa/sec | Specific airway volume ([2]; Week 12, 600 mg q.d.): 3.80 mL/L | airway resistance (in words) ([2]; baseline vs Week 12): stabilization | airway volume (in words) ([2]; baseline vs Week 12): stabilization | surfactant protein A in blood (in words) [3]: statistically significant increase | LPA18:2 percentage reduction ([6]; 600 mg q.d., Week 4, positive value = reduction): 52.48% | LPA18:2 percentage reduction ([6]; 600 mg q.d., Week 12, positive value = reduction): 67.48% | LPA18:2 percentage reduction ([6]; Follow up visit, negative value = increase in LPA levels): −34.36% | LPA 18:2 % reduction ([6]; Week 4 - 0 h post-dose (second line so labelled, r10)): 88% | LPA 18:2 % reduction ([6]; Week 4 - 0 h post-dose): 52% | LPA 18:2 % reduction ([6]; Week 12 - 0 h post-dose): 68% | LPA 18:2 levels after stopping the administration (in words) ([6]; after stopping administration): levels returning to or above baseline levels | LPA 18:2 levels on administration (in words) ([6]; during administration, 600 mg q.d.): stable decrease in LPA 18:2 levels | LPA C8:2 % reduction ([7]; D 14 - 6 h post-dose): 83% | LPA C8:2 % reduction ([7]; D 14 - 24 h post-dose): 66% | FVC CFB ([8]; 600 mg q.d., Week 4, IPF subjects): +116 mL | FVC CFB ([8]; 600 mg q.d., Week 8, IPF subjects): +15 mL | FVC CFB ([8]; 600 mg q.d., Week 12, IPF subjects, mean from baseline, listed as Cpd I): +8 mL | FVC CFB ([8]; 600 mg q.d., Week 12, IPF subjects, mean from baseline, listed as compound according to Formula I): 8 mL | FVC CFB ([8]; Follow up (2 weeks after last administration of 600 mg q.d.)): -55 mL
